Assay results taken from patent publication US20240391912A1, “MORPHIC FORMS OF CFT7455 AND METHODS OF MANUFACTURE THEREOF” (C4 THERAPEUTICS, INC., priority 2022, published 2024).

Key:
[1] = molecular target: T1, Ikaros (also known as IKZF1) (Homo sapiens, UniProt Q13422+Q96SW2); assay: Ikaros degradation in PBMC of patients (mass spectrometry); assay type: in vivo; settings: Patients 2, 4, 5; oral 50 μg/day or 25 μg/day; 4 hours, day 7, 14, 21 of cycle 1
T1 construct: total peripheral blood mononuclear cell (PBMC) population extracted from whole blood samples of Patient 2, Patient 4, and Patient 5; endogenous in cells; host or cells: peripheral blood mononuclear cells (PBMC) from whole blood of treated patients
Procedure: (§1) Ikaros (also known as IKZF1) and Aiolos (also known as IKZF3) degradation was evaluated using mass spectrometry analysis of total peripheral blood mononuclear cell (PBMC) population extracted from whole blood samples of Patient 2, Patient 4, and Patient 5 taken on the first day of the first cycle (cycle 1, day 1 or C1D1) prior to treatment, 4 hours post Compound 1 treatment, and on day 7, day 14, and day 21 of the treatment cycle.

[2] = molecular target: T2, Aiolos (also known as IKZF3) (Homo sapiens, UniProt Q9UKT9); assay: Aiolos degradation in PBMC of patients (mass spectrometry); assay type: in vivo; settings: Patients 2, 4, 5; oral 50 μg/day or 25 μg/day; 4 hours, day 7, 14, 21 of cycle 1
T2 construct: total peripheral blood mononuclear cell (PBMC) population extracted from whole blood samples of Patient 2, Patient 4, and Patient 5; endogenous in cells; host or cells: peripheral blood mononuclear cells (PBMC) from whole blood of treated patients
Procedure: as §1

[3] = tested on: involved and uninvolved free light chains; assay: Reduction in dFLC after single agent exposure to Compound 1; assay type: in vivo, human
Procedure: Using samples collecting in Example 24, the difference between involved free light chains and uninvolved free light changes, or dFLC, for Patients 1-3 were calculated using the following formula:
[Abnormal light chainbaseline−normal light chainbaseline]−[Abnormal light chainnadir−normal light chainnadir]/[Abnormal light chainbaseline−normal light chainbaseline]*100 dFLC equation: […]

[4] = tested on: OCI-LY10 human DLBCL intracranial xenografts; assay: OCI-LY10 human DLBCL intracranial xenograft study, survival
Procedure: Agents were tested in the OCI-LY10 human DLBCL intracranial model. […] Rituximab was administered from day 1 via i.v. once per week. Rituximab was dosed at 10 and 30 mg/kg. Individual mouse was euthanized once its body weight loss was over 20%.
The cells growing in an exponential growth phase were harvested and counted for tumor inoculation.
99 CB17 SCID mice were inoculated by intracranial injection with OCI-LY10 cells (1×10^6) for tumor development.
Tumor inoculation: Intraperitoneally injected avertin at dosage of 240 mg/kg to anaesthetize the CB17 SCID mice. Fixed the head of the anaesthetized mice to the brain solid positioner, sterilized the head skin with 70% alcohol. […] Punched a hole about 2 mm right of the anterior fontanel and 1 mm ahead the coronal on the skull with a 25 G needle. Cell suspensions were mixed and certain amount was sucked into the 5 μL injector slowly to avoid bubble formation. The cells were swapped around the needle with alcohol to avoid extracranial tumor genesis. The needle was stuck vertically into the formed hold and 5 μL of cell suspension containing 1×10^6 OCI-LY10 cells was slowly injected for over 1 minute. The injector was then held for another 1 minute and then pulled back to decrease the drainage of the cells suspension. The skin was closed with tweezers and then sewed. Meloxicam was then injected 30 min after the surgery at dosage of 5 mg/kg to relieve the pain. The animals were kept under monitoring until they were awake.
Animals were grouped for treatment on day 7 after tumor inoculation.
At the time of routine monitoring, the animals were daily checked for any effects of tumor growth and treatments on normal behavior such as mobility, food and water consumption (by looking only), body weight gain/loss (body weights were measured twice weekly), eye/hair matting and any other abnormal effect as stated in the protocol. Death and observed clinical signs were recorded on the basis of the numbers of animals within each subset.

[5] = Compound 1, 0.01 mg/kg, p.o., QD

T1 sequence (Q13422 whole entry): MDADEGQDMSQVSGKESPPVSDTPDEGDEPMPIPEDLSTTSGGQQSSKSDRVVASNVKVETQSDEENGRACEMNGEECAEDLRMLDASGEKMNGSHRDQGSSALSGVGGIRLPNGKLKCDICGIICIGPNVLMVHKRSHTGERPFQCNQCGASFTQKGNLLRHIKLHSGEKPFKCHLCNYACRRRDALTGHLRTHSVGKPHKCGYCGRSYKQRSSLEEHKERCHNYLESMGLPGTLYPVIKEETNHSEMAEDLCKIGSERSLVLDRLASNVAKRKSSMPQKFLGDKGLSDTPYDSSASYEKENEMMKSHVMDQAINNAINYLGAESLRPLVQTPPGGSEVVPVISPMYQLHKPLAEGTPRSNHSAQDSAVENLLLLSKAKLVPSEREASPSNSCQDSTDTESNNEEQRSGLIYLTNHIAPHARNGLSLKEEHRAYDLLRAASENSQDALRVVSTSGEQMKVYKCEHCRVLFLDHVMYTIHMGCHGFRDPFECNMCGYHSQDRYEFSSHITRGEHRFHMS
T1 sequence (Q96SW2 whole entry): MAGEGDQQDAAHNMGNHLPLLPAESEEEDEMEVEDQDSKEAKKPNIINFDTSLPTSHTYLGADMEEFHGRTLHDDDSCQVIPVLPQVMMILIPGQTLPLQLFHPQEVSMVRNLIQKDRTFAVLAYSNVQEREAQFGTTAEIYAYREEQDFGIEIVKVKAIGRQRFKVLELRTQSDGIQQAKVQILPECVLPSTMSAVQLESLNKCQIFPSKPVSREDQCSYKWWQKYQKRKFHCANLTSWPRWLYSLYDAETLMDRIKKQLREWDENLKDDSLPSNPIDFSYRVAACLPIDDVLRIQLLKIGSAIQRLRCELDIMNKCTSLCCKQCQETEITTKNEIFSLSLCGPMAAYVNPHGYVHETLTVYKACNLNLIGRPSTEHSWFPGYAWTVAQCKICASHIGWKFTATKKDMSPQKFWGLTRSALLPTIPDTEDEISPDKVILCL
T1 sequence (Q16531 whole entry partner): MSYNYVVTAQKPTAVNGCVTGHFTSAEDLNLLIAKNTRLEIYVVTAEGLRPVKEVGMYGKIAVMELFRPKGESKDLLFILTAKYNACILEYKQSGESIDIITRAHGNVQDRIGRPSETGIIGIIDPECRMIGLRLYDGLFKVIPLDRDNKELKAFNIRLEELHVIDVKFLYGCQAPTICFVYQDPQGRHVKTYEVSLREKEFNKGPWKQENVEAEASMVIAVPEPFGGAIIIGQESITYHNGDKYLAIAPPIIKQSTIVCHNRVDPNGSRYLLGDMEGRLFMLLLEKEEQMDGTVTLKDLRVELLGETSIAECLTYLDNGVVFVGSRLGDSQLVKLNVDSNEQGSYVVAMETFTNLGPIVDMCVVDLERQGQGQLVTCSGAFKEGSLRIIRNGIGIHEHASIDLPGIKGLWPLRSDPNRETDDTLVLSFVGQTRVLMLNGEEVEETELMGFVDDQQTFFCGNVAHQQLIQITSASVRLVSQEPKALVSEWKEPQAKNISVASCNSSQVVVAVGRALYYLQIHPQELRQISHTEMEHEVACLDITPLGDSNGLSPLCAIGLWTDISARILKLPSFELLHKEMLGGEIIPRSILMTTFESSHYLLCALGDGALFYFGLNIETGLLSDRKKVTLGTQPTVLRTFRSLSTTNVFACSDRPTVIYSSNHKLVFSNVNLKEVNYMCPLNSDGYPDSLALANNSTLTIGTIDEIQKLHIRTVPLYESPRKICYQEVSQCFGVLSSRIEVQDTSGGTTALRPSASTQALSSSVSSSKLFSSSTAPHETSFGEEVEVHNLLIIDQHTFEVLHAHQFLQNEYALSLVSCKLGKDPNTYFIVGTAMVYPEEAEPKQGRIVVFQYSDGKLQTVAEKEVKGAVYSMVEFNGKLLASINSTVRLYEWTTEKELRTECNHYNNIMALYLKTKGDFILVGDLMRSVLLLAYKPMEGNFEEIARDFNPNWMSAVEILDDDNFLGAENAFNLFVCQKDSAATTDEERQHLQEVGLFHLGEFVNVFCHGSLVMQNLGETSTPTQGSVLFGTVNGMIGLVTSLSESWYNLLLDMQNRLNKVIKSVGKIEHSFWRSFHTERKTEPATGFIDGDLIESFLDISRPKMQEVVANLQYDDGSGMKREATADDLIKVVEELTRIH
T2 sequence (Q9UKT9 whole entry): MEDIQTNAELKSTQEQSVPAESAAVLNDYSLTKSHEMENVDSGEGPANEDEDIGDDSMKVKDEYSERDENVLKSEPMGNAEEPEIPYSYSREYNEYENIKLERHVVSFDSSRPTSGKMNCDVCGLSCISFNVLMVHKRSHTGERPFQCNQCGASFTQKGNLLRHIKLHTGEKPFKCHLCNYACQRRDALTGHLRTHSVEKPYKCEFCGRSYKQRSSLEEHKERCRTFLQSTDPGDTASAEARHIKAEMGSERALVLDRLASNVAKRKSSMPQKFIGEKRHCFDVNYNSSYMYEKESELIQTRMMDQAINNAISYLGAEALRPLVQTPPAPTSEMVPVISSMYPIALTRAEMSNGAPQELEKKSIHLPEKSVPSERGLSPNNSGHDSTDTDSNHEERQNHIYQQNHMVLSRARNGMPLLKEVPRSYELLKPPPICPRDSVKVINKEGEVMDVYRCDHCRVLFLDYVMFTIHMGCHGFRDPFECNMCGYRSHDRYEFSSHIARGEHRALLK
T2 sequence (Q96SW2 whole entry, further chain): as the sequence (Q96SW2 whole entry) above
T2 sequence (Q16531 whole entry partner): as the sequence (Q16531 whole entry partner) above

## O=C1CC[C@H](N2C(=O)c3cccc4c(Cc5ccc(CN6CCOCC6)cc5)ccc2c34)C(=O)N1 [Compound 1, (S)-3-(6-(4-(morpholinomethyl)benzyl)-2-oxobenzo[cd]indol-1(2H)-yl)piperidine-2,6-dione]
[1]
  Ikaros (IKZF1) degradation in PBMC compared to baseline: deep degradation
[2]
  Aiolos (IKZF3) degradation in PBMC compared to baseline: deep degradation
[3]; Patient 1, first dose 50 μg oral, no extramedullary disease, ∇ (down)
  % Change at Nadir in dFLC: ∇ 48.2%
[3]; Patient 2, first dose 50 μg oral, Multiple Plasmacytomas, ∇ (down)
  % Change at Nadir in dFLC: ∇ 78.1%
[3]; Patient 3, first dose 50 μg oral, Lytic Bone Lesions, ∇ (down)
  % Change at Nadir in dFLC: ∇ 41.0%
[3]; Patient 4, first dose 50 μg oral, no extramedullary disease, printed with Δ (up)
  % Change at Nadir in dFLC: Δ 56.3%
[4]; Compound 1 0.01 mg/kg p.o. once per day, p=0.001
  extension of survival time: 35.7%
[4]; [5]
  Median Survival (Days), ± SEM: 19.00 ± 1.41 days
  Survival time extension (%): 35.7%
